Test results from patent US9521847B2, “Synergistic weed control from applications of pyridine carboxylic acid herbicides and synthetic auxin herbicides and/or auxin transport inhibitors” (Dow AgroSciences LLC, priority 2014, dated 2016).
Where two headings read alike, the source gives them in different places.

Columns and labels:
[1] = system: Chinese kale (Brassica alboglabra, BRSAG); assay: Greenhouse postemergence trial, % visual injury; assay type: in vivo; details: 400 g ae/ha alone; 20-22 d
[2] = system: brown mustard (Brassica juncea, BRSJU); assay: Greenhouse postemergence trial, % visual injury; assay type: in vivo; details: 400 g ae/ha alone; 20-22 d
[3] = system: rutabaga (Brassica napus var. napobrassica, BRSNA); assay: Greenhouse postemergence trial, % visual injury; assay type: in vivo; details: 400 g ae/ha alone; 20-22 d
[4] = system: grain sorghum (Sorghum vulgare, SORVU); assay: Greenhouse postemergence trial, % visual injury; assay type: in vivo
[5] = system: black mustard (Brassica nigra, BRSNI); assay: Greenhouse postemergence trial, % visual injury; assay type: in vivo
[6] = system: turnip (Brassica rapa, BRSRR); assay: Greenhouse postemergence trial, % visual injury; assay type: in vivo
[7] = system: wild radish (Raphanus raphanistrum, RAPRA); assay: Greenhouse postemergence trial, % visual injury; assay type: in vivo
[8] = system: wild mustard (Sinapis arvensis, SINAR); assay: Greenhouse postemergence trial, % visual injury; assay type: in vivo
[9] = system: Indian hedge mustard (Sisymbrium orientale, SSYOR); assay: Greenhouse postemergence trial, % visual injury; assay type: in vivo
[10] = system: Canadian thistle (CIRAR, Cirsium arvense); assay: Greenhouse postemergence trial, % visual injury; details: for % visual injury, Obs: CIRAR;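 for all read-outs here: plants sprayed at second to third true leaf stage, injury scored visually 20-22 d later against solvent-blank sprayed controls, 0 meaning no injury and 100 complete kill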
[11] = system: spring rape (Brassica napus, BRSNN); assay: Greenhouse postemergence trial, % visual injury
[12] = system: wild pansy (Viola tricolor, VIOTR); assay: Greenhouse postemergence trial, % visual injury
[13] = system: ivyleaf morningglory (Ipomoea hederacea, IPOHE); assay: Greenhouse postemergence trial, % visual injury
winter wheat (TRZAW) [14] = assay: Greenhouse postemergence trial, crop phytotoxicity (% visual injury); details: for % visual injury, Obs: TRZAW; for % visual injury Obs: crop, 20-22 d
maize (ZEAMX) [15] = assay: as above; details: for % visual injury, Obs: ZEAMX
common rice (ORYSA) [16] = assay: as above; details: for % visual injury, Obs: ORYSA
[17] = system: pigweed (AMARE, Amaranthus retroflexus); assay: Greenhouse postemergence trial, % visual injury; assay type: in vivo
[18] = system: winter rape (BRSNW, Brassica napus); assay: Greenhouse postemergence trial, % visual injury; assay type: in vivo; details: 20-22 d
[19] = system: common lambsquarters (CHEAL, Chenopodium album L.); assay: Greenhouse postemergence trial, % visual injury; assay type: in vivo
[20] = system: large crabgrass (Digitaria sanguinalis, DIGSA); assay: Greenhouse postemergence trial, % visual injury; assay type: in vivo; details: Digitaria sanguinalis, post-emergence, DIGSA, read-out: % visual injury, Obs
spring barley (HORVS) [21] = details: Hordeum vulgare (spring barley), in vivo
winter wheat (TRZAW) [22] = details: in vivo; for % visual injury Obs: Triticum aestivum (winter wheat)
maize (ZEAMX) [23] = details: maize (Zea mays), in vivo
common rice (ORYSA) [24] = details: in vivo
[25] = system: poinsettia (Euphorbia heterophylla, EPHHL); assay: Greenhouse postemergence trial, % visual injury
[26] = system: velvetleaf (Abutilon theophrasti, ABUTH); assay: Greenhouse postemergence trial, % visual injury; assay type: in vivo
[27] = system: nutsedge (Cyperus esculentus, CYPES); assay: Greenhouse postemergence trial, % visual injury; assay type: in vivo
[28] = system: sunflower (Helianthus annus, HELAN); assay: Greenhouse postemergence trial, % visual injury; assay type: in vivo; details: dichlorprop-P 400 g ae/ha
[29] = system: common chickweed (Stellaria media, STEME); assay: Greenhouse postemergence trial, % visual injury; assay type: in vivo; details: for % visual injury, Obs: STEME
[30] = system: kochia (KCHSC, Kochia scoparia); assay: Greenhouse postemergence trial, % visual injury; assay type: in vivo
Protocol: Following the protocol in Example 1, compound 1 and compound 2 were combined with 2,4 D EHE (EC) and applied to kochia (KCHSC, Kochia scoparia) and the phytotoxicity of the herbicidal compositions was measured.
Following the protocol in Example 1, compound 1 (EC) and Compound 2 (SC) were combined with diflufenzopyr and applied to kochia (Kochia scoparia, KCHSC) and the phytotoxicity of the herbicidal composition was measured.

spring barley (HORVS) [31] = assay: Greenhouse postemergence trial, crop phytotoxicity (% visual injury); details: crop, 20-22 d
[32] = system: barnyardgrass (Echinochloa crus-galli, ECHCG); assay: Greenhouse postemergence trial, % visual injury; assay type: in vivo; details: ECHCG, 280 g ae/ha
[33] = winter wheat (Triticum aestivum)
[34] = Cirsium arvense, post-emergence, read-out: % visual injury (Obs)
[35] = Brassica napus, post-emergence, read-out: % visual injury (Obs)
[36] = Brassica napus, post-emergence, read-out: % visual injury, Obs
[37] = Cirsium arvense, post-emergence, read-out: % visual injury Obs

O=C(O)COc1ccc(Cl)cc1Cl [2,4-D choline, reference compound]
% visual injury Obs [1]: 85%
% visual injury Obs [2]: 90%
% visual injury Obs [3]: 93%

COC(=O)c1nc(-c2ccc(Cl)c(OC)c2F)cc(N)c1Cl [Arylex ™]
% visual injury (Obs) ([4]; Arylex 2.5 g ae/ha): 0%
% visual injury (Obs) ([5]; Arylex 2.5 g ae/ha): 0%
% visual injury (Obs) ([5]; Arylex 5 g ae/ha): 0%
% visual injury (Obs) ([6]; Arylex 2.5 g ae/ha): 10%
% visual injury (Obs) ([6]; Arylex 5 g ae/ha): 13%
% visual injury (Obs) ([7]; Arylex 2.5 g ae/ha): 10%
% visual injury (Obs) ([7]; Arylex 5 g ae/ha): 20%
% visual injury (Obs) ([8]; Arylex 2.5 g ae/ha): 65%
% visual injury (Obs) ([8]; Arylex 5 g ae/ha): 78%
% visual injury (Obs) ([9]; Arylex 2.5 g ae/ha): 57%
% visual injury (Obs) ([9]; Arylex 5 g ae/ha): 63%
% visual injury (Obs) ([10]; Arylex 2.5 g ae/ha): 50%
% visual injury (Obs) ([11]; Arylex 2.5 g ae/ha): 20%
% visual injury (Obs) ([12]; Arylex 2.5 g ae/ha): 15%
% visual injury (Obs) ([12]; Arylex 5 g ae/ha): 20%
% visual injury (Obs) ([13]; Arylex 2.5 g ae/ha): 10%
% visual injury (Obs) (winter wheat (TRZAW) [14]; Arylex 2.5 g ae/ha): 0%
% visual injury (Obs) (maize (ZEAMX) [15]; Arylex 2.5 g ae/ha): 0%
% visual injury (Obs) (common rice (ORYSA) [16]; Arylex 2.5 g ae/ha): 0%

COc1c(Cl)ccc(Cl)c1C(=O)O [Dicamba-DMA, dicamba-dimethylammonium, reference compound]
pest or weed control at 140 g/ha ([17]; Amaranthus retroflexus, post-emergence, 140 g ae/ha alone, 20-22 d, read-out: % visual injury Obs): 67%
% visual injury Obs ([18]; 140 g ae/ha alone): 40%
% visual injury, Obs ([19]; CHEAL, 140 g ae/ha): 85%
pest or weed control at 140 g/ha ([20]; 140 g ae/ha): 0%
% visual injury Obs (spring barley (HORVS) [21]): 0%
% visual injury Obs (winter wheat (TRZAW) [22]): 0%
% visual injury (Obs) (winter wheat (TRZAW) [22]; [33]): 0%
% visual injury, Obs (winter wheat (TRZAW) [22]; [33]): 0%
% visual injury (Obs) (maize (ZEAMX) [23]): 0%
% visual injury, Obs (maize (ZEAMX) [23]): 0%
% visual injury (Obs) (common rice (ORYSA) [24]): 0%
% visual injury, Obs (common rice (ORYSA) [24]): 5%
pest or weed control at 150 g/ha [10, 34]: 70%
plant injury at 150 g/ha [11, 35]: 40%
plant injury at 140 g/ha [11, 36]: 50%
pest or weed control at 140 g/ha ([25]; Euphorbia heterophylla, post-emergence, read-out: % visual injury, Obs, EPHHL, 140 g ae/ha): 20%
% visual injury (Obs) ([25]; dicamba-DMA 150 g ae/ha): 50%
% visual injury (Obs) ([12]; dicamba-DMA 150 g ae/ha): 20%
% visual injury (Obs) ([13]; dicamba-DMA 150 g ae/ha): 70%

CC(Oc1ccc(Cl)cc1Cl)C(=O)O (stereo not shown) [Dichlorprop-P, dichlorprop-P, reference compound]
pest or weed control at 280 g/ha ([17]; Amaranthus retroflexus, post-emergence, 280 g ae/ha alone, 20-22 d, read-out: % visual injury Obs): 40%
% visual injury Obs ([18]; 280 g ae/ha alone): 83%
% visual injury (Obs) ([26]; dichlorprop-P 400 g ae/ha): 60%
% visual injury (Obs) ([27]; dichlorprop-P 400 g ae/ha): 0%
% visual injury (Obs) [28]: 85%
% visual injury (Obs) ([29]; dichlorprop-P 400 g ae/ha): 20%
% visual injury Obs (spring barley (HORVS) [21]): 0%
% visual injury Obs (winter wheat (TRZAW) [22]): 0%
% visual injury (Obs) (winter wheat (TRZAW) [22]; [33]): 0%
% visual injury (Obs) (common rice (ORYSA) [24]): 0%
pest or weed control at 400 g/ha [10, 34]: 70%
pest or weed control at 280 g/ha [10, 37]: 75%
plant injury at 400 g/ha [11, 35]: 80%
% visual injury (Obs) ([25]; dichlorprop-P 400 g ae/ha): 60%

Cc1cc(Cl)ccc1OC(C)C(=O)O (stereo not shown) [Mecoprop-P, mecoprop-P]
pest or weed control at 400 g/ha ([17]; Amaranthus retroflexus, post-emergence, 400 g ae/ha alone, 20-22 d, read-out: % visual injury Obs): 58%
% visual injury Obs ([18]; 400 g ae/ha alone): 88%
pest or weed control at 400 g/ha ([30]; Bassia scoparia, post-emergence, KCHSC, 400 g ae/ha, read-out: % visual injury, Obs): 10%
pest or weed control at 400 g/ha ([26]; Abutilon theophrasti, post-emergence, ABUTH, 400 g ae/ha, read-out: % visual injury, Obs): 30%
% visual injury, Obs ([4]; SORVU, 400 g ae/ha): 0%
% visual injury, Obs ([29]; 400 g ae/ha): 0%
% visual injury, Obs ([10]; 400 g ae/ha): 10%
plant injury at 400 g/ha [11, 36]: 30%
pest or weed control at 400 g/ha ([25]; Euphorbia heterophylla, post-emergence, read-out: % visual injury, Obs, EPHHL, 400 g ae/ha): 30%
pest or weed control at 400 g/ha ([13]; Ipomoea, post-emergence, read-out: % visual injury, Obs, IPOHE, 400 g ae/ha): 30%
% visual injury Obs (spring barley (HORVS) [31]; 400 g ae/ha alone): 0%
% visual injury, Obs (winter wheat (TRZAW) [14]; 400 g ae/ha): 0%
% visual injury Obs (winter wheat (TRZAW) [14]; 400 g ae/ha alone): 0%
% visual injury, Obs (maize (ZEAMX) [15]; 400 g ae/ha): 0%
% visual injury, Obs (common rice (ORYSA) [16]; 400 g ae/ha): 0%

O=C(O)c1nc(Cl)ccc1Cl [clopyralid]
% visual injury, Obs ([17]; AMARE, 100 g ae/ha): 28%
pest or weed control at 100 g/ha ([17]; Amaranthus retroflexus, post-emergence, 100 g ae/ha alone, 20-22 d, read-out: % visual injury Obs): 3%
% visual injury Obs ([18]; 100 g ae/ha alone): 0%
pest or weed control at 100 g/ha ([19]; Chenopodium album, post-emergence, 100 g ae/ha alone, 20-22 d, read-out: % visual injury Obs): 0%
% visual injury (Obs) ([19]; clopyralid 120 g ae/ha): 10%
% visual injury (Obs) ([30]; clopyralid 120 g ae/ha): 10%
% visual injury (Obs) ([29]; clopyralid 120 g ae/ha): 0%
pest or weed control at 100 g/ha ([20]; 100 g ae/ha): 0%
pest or weed control at 100 g/ha [10, 37]: 85%
plant injury at 100 g/ha [11, 36]: 43%
pest or weed control at 100 g/ha ([25]; Euphorbia heterophylla, post-emergence, read-out: % visual injury, Obs, EPHHL, 100 g ae/ha): 5%
pest or weed control at 100 g/ha ([13]; Ipomoea, post-emergence, read-out: % visual injury, Obs, IPOHE, 100 g ae/ha): 35%
% visual injury (Obs) ([13]; clopyralid 120 g ae/ha): 30%
% visual injury Obs (spring barley (HORVS) [31]; 100 g ae/ha alone): 5%
% visual injury, Obs (winter wheat (TRZAW) [14]; 100 g ae/ha): 0%
% visual injury (Obs) (winter wheat (TRZAW) [14]; clopyralid 120 g ae/ha): 0%
% visual injury Obs (winter wheat (TRZAW) [14]; 100 g ae/ha alone): 3%
% visual injury, Obs (maize (ZEAMX) [15]; 100 g ae/ha): 0%
% visual injury (Obs) (maize (ZEAMX) [15]; clopyralid 120 g ae/ha): 0%
% visual injury, Obs (common rice (ORYSA) [16]; 100 g ae/ha): 0%
% visual injury (Obs) (common rice (ORYSA) [16]; clopyralid 120 g ae/ha): 0%

CCCCOCCOC(=O)COc1nc(Cl)c(Cl)cc1Cl [triclopyr-butotyl, reference compound]
pest or weed control at 280 g/ha ([30]; Bassia scoparia, post-emergence, KCHSC, 280 g ae/ha, read-out: % visual injury, Obs): 50%
pest or weed control at 280 g/ha ([26]; Abutilon theophrasti, post-emergence, ABUTH, 280 g ae/ha, read-out: % visual injury, Obs): 20%
% visual injury, Obs ([27]; CYPES, 280 g ae/ha): 10%
% visual injury, Obs ([29]; 280 g ae/ha): 20%
pest or weed control at 280 g/ha ([20]; 280 g ae/ha): 0%
% visual injury, Obs [32]: 0%
% visual injury, Obs ([10]; 280 g ae/ha): 85%
plant injury at 280 g/ha [11, 36]: 80%
% visual injury, Obs ([12]; VIOTR, 280 g ae/ha): 65%
% visual injury, Obs (winter wheat (TRZAW) [14]; 280 g ae/ha): 15%
% visual injury, Obs (maize (ZEAMX) [15]; 280 g ae/ha): 10%
% visual injury, Obs (common rice (ORYSA) [16]; 280 g ae/ha): 0%
